Measurements from patent US20250367129A1, “Lipid Compounds and Uses Thereof” (Pfizer Inc., priority 2022, published 2025).

How the values were obtained:
[1] = test system: Hela cells; test: In vitro expression of encoded gene of interest after LNP dosing, high content imaging (WISC HA modFlu mRNA); assay type: cell-based; settings: LNP with WISC HA modFlu mRNA, overnight incubation
Method: (§1) Lipid nanoparticles were prepared and tested according to the general procedures described in U.S. Pat. No. 9,737,619 (PCT Pub. No. WO2015/199952) and U.S. Pat. No. 10,166,298 (PCT Pub. No. WO 2017/075531) and PCT Pub. No. WO2020/146805. The novel ionizable lipids of the invention, cholesterol, DSPC and PEG-Lipid were solubilized in Ethanol at a molar ratio of about 46.3:42.7:9.4:1.6. Lipid nanoparticles (LNP) were prepared at a total lipid to mRNA ratio of about 23:1. In short, the mRNA (WISC HA modFlu) was diluted in buffer. Syringe pumps were used to mix the lipid solution with the mRNA solution. The ethanol was removed, and external buffer replaced with another buffer (e.g., Tris) by dialysis. Finally, the lipid nanoparticle size and size distribution were determined by dynamic light scattering using an Unchained Labs Stunner (Unchained Labs, USA). RNA encapsulation efficiency was determined using the Quant-iT RiboGreen RNA assay (Life Technologies, USA). Briefly, LNPs were incubated with RiboGreen dye (200-fold dilution per manufactures' instruction) in the presence and absence of 1% Triton-X 100 and fluorescence intensities (Excitation/Emission: 485/528 […]) were measured for unencapsulated RNA and total RNA after release from LNPs by Triton-X 100.
(§2) Plated Hek293T or Hela cells were dosed with lipid nanoparticles in a total volume of 40 μl cell culture media and incubated overnight at 37° C. and 5% CO2. After fixation with 4% paraformaldehyde in PBS cells were washed in PBS containing 0.3% Triton-X100 and 3% BSA (w/v), followed by nuclear staining with Hoechst and antibody staining for the encoded gene of interest. Nuclear count and identification of cells stained positive for gene of interest was done on an Opera Phenix high content imager (PerkinElmer, USA).

[2] = test system: Hek293T cells; test: as above; assay type: cell-based; settings: LNP with WISC HA modFlu mRNA, overnight incubation
Method: as §1, §2

[3] = LNP size and size distribution by dynamic light scattering (WISC HA modFlu mRNA LNPs); assay type: physicochemical; settings: DLS; for Size (nm): LNP of the ionizable lipid:cholesterol:DSPC:PEG-Lipid about 46.3:42.7:9.4:1.6 with WISC HA modFlu mRNA; for PDI: LNP with WISC HA modFlu mRNA
Method: as §1

[4] = test system: Hela cells; test: In vitro expression of novel ionizable lipid nanoparticles, high content imaging (CA HA modFlu mRNA); assay type: cell-based; settings: LNP with CA HA modFlu mRNA
Outline: (§3)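 Lipid nanoparticles of ionizable lipid, cholesterol, DSPC and ALC-0159 (about 46.3:42.7:9.4:1.6 molar), N:P about 6:1, carrying mRNA, dosed onto cells overnight at 37° C., 5% CO2. Cells fixed and stained with Hoechst plus antibody to encoded protein; nuclei and antigen-positive cells counted by high-content imaging.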

[5] = test system: HEK293F cells; test: as above; assay type: cell-based; settings: LNP with CA HA modFlu mRNA
Outline: as §3

[6] = Encapsulation efficiency, RiboGreen RNA quantitation assay (CA HA modFlu mRNA LNPs); assay type: physicochemical; settings: LNP with CA HA modFlu mRNA
Outline: (§4)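 LNPs of ionizable lipid:cholesterol:DSPC:ALC-0159 (molar ratio about 46.3:42.7:9.4:1.6) formed by syringe-pump mixing of ethanolic lipids with mRNA at N:P about 6:1, then dialysed into buffer (e.g., Tris) and filtered. Size and PDI measured by DLS; total RNA and encapsulation efficiency by RiboGreen.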

[7] = LNP size and polydispersity index by Malvern Zetasizer dynamic light scattering (CA HA modFlu mRNA LNPs); assay type: physicochemical; settings: DLS; for Size (nm): LNP of the ionizable lipid:cholesterol:DSPC:ALC-0159 about 46.3:42.7:9.4:1.6, N:P about 6:1, CA HA modFlu mRNA; for PDI: LNP with CA HA modFlu mRNA
Outline: as §4

[8] = RNA encapsulation efficiency, Quant-iT RiboGreen RNA assay (WISC HA modFlu mRNA LNPs); assay type: physicochemical; settings: LNP with WISC HA modFlu mRNA
Method: as §1

SMILES | EC50 Hela (ng/well) [1] [ng/well] | EC50 Hek293T (ng/well) [2] [ng/well] | Size (nm) [3] [nm] | PDI [3] | EC50 Hela (ng/well) [4] [ng/well] | EC50 Hek293F (ng/well) [5] [ng/well] | EE % [6] [%] | Size (nm) [7] [nm] | PDI [7] | EE % [8] [%]
CCCCCCCC(CCCCCCC)C(=O)O[C@@H]1CC2(CCN(CCCCO)CC2)C[C@H]1OC(=O)C(CCCCCCC)CCCCCCC (racemic) [Example 51, rac-(2R,3R)-8-(4-Hydroxybutyl)-8-azaspiro[4.5]decane-2,3-diyl bis(2-heptylnonanoate)] | 10.7 | 5.3 | 72 | 0.03 | 0.64 | 0.27 | 99 | 58 | 0.030 | 96
CCCCCCCC(CCCCCCC)C(=O)OCC1(COC(=O)C(CCCCCCC)CCCCCCC)CCC2(CCN(CCCCO)CC2)CC1 [Example 1, (3-(4-hydroxybutyl)-3-azaspiro[5.5]undecane-9,9-diyl)bis(methylene) bis(2-heptylnonanoate)] | 18.3 | 13.9 | 76 | 0.04 | 1.2 | 1.7 | 100 | 78 | 0.050 | 99
CCCCCCCC(CCCCCCC)C(=O)OCC(COC(=O)C(CCCCCCC)CCCCCCC)C1CCC2(CC1)CCN(CCCCO)CC2 [Example 2, 2-(3-(4-hydroxybutyl)-3-azaspiro[5.5]undecan-9-yl)propane-1,3-diyl bis(2-heptylnonanoate)] | 28.1 | 14.5 | 93 | 0.06 | 1.6 | 2.5 | 100 | 92 | 0.040 | 99
CCCCCCCC(CCCCCCC)C(=O)OCC(COC(=O)C(CCCCCCC)CCCCCCC)N1CCC2(CCN(CCCCO)CC2)CC1 [Example 3, 2-(9-(4-Hydroxybutyl)-3,9-diazaspiro[5.5]undecan-3-yl)propane-1,3-diyl bis(2-heptylnonanoate)] | 18.4 | 11.9 | 152 | 0.07 | 1.7 | 2.8 | 100 | 90 | 0.040 | 99
CCCCCCCCCCCCCCCC(=O)OCC(COC(=O)CCC(CCCC)C(CCCC)CCCC)N1CCC2(CCN(CCCCO)CC2)CC1 (centres unmarked) [Example 46, 3-((4,5-dibutylnonanoyl)oxy)-2-(9-(4-hydroxybutyl)-3,9-diazaspiro[5.5]undecan-3-yl)propyl palmitate] |  |  |  |  | 1.7 | 24.6 | 99 | 92 | 0.090 | 
CCCCCCCC(CCCCCCC)C(=O)OCCC(CCOC(=O)C(CCCCCCC)CCCCCCC)N1CCC2(CCN(CCCCO)CC2)CC1 [Example 47, 3-(9-(4-hydroxybutyl)-3,9-diazaspiro[5.5]undecan-3-yl)pentane-1,5-diyl bis(2-heptylnonanoate)] |  |  |  |  | 4.6 | 5.9 | 99 | 147 | 0.080 | 
CCCCCCCC(CCCCCCC)C(=O)OCC(COC(=O)C(CCCCCCC)CCCCCCC)N1CCC2(CCN(CCCCCO)C2)CC1 [Example 48, 2-(2-(5-hydroxypentyl)-2,8-diazaspiro[4.5]decan-8-yl)propane-1,3-diyl bis(2-heptylnonanoate)] |  |  |  |  | 1.0 | 0.76 | 100 | 127 | 0.093 | 
CCCCCCCCC(CCCCCC)C(=O)OCC(COC(=O)C(CCCCCC)CCCCCCCC)N1CC2(CCN(CCCCCO)CC2)C1 (centres unmarked) [Example 49, 2-(7-(5-hydroxypentyl)-2,7-diazaspiro [3.5]nonan-2-yl)propane-1,3-diyl bis(2-hexyldecanoate)] |  |  |  |  | 1.4 | 0.41 | 99 | 160 | 0.110 | 
CCCCCCCCC(CCCCCC)C(=O)OCC(COC(=O)C(CCCCCC)CCCCCCCC)N1CCC2(CC1)CN(CCCCO)C2 (centres unmarked) [Example 50, 2-(2-(4-hydroxybutyl)-2,7-diazaspiro[3.5]nonan-7-yl)propane-1,3-diyl bis(2-hexyldecanoate)] |  |  |  |  | 0.74 | 0.56 | 99 | 120 | 0.046 | 
